# Columns and labels:
# IL-6 = assay: In vivo inflammation study, LPS stimulated mouse model, serum IL-6 by ELISA; parameters: species or system BALB/c Albino male mice; details: 12 h before LPS
# Description: (§1) To explore the anti-inflammatory properties of the new aspirin derivative in NP formulation in vivo, we used mice stimulated with lipopolysaccharide (LPS). […] In our studies following similar protocol in C57BL/6 or BALB/c (albino) mice, we observed enhanced levels of TNF-α and IL-6 in the serum after intraperitonial administration of 100 μg of LPS per animal and the levels peaked at 1.5 and 3 h, respectively for TNF-α and IL-6. Next, 8 week old BALB/c male mice were administered with saline or aspirin (20 mg/kg) or NT-(Asp)4-NP (20 mg/kg with respect to aspirin) or T-(Asp)4-NP (20 mg/kg with respect to aspirin) by i.v. injections and after 12 h, these animals were subsequently treated with intraperitonially injected LPS for 1.5 h and 3 h (FIG. 3A). Serum samples were isolated from the treated animals and pro-inflammatory and anti-inflammatory cytokine levels in the serum samples were evaluated by the enzyme-linked immunosorbent assay (ELISA).
# (§2) Anti-inflammatory properties of T/NT-(Asp)4-NPs and aspirin were evaluated in LPS stimulated mouse model. […] The absorbance of the product formed was recorded at 450 nm using a BioTek Synergy HT well plate reader.
# TNF-α = assay: In vivo inflammation study, LPS stimulated mouse model, serum TNF-α by ELISA; parameters: species or system BALB/c Albino male mice; details: 20 mg/kg (with respect to aspirin) i.v.
# Description: as §1, §2
smiles,measurement,setting,value
"CC(=O)Oc1ccccc1C(=O)O [aspirin, acetylsalicylic acid]",serum IL-6 level compared to only LPS,"IL-6; 20 mg/kg (with respect to aspirin) i.v., LPS for 1.5 h",significantly reduced
same,serum IL-6 level compared to LPS alone,"IL-6; 20 mg/kg i.v., LPS for 3 h",reduced IL-6 levels
same,serum TNF-α level compared to only LPS,"TNF-α; 12 h before LPS i.p., LPS for 1.5 h",non-significant
same,serum TNF-α level,"TNF-α; 12 h before LPS, LPS for 3 h",did not show any significant differences
